± gives the expanded uncertainty stated by the source.
What was measured:
[1] = refractive index (Na D-line) (dimensionless); settings: 303.15 K; 101.33 kPa; Liquid; Standard Abbe refractometry
[2] = 303.15 K; 101.33 kPa; Liquid; Vibrating tube method
[3] = excess molar enthalpy (molar enthalpy of mixing); xn = mol fraction of the nth substance listed; settings: 300 K, 101 kPa, Liquid, Flow calorimetry

CCCCO [butan-1-ol]
Settings | mass density [kg/m3] | refractive index
[1] | – | 1.3962 ± 0.0005
[2] | 801.98 ± 0.15 | –

CCO [ethanol]
Settings | mass density [kg/m3] | refractive index
[1] | – | 1.358 ± 0.0005
[2] | 780.82 ± 0.15 | –

OC1CCCCC1 [cyclohexanol] + CC(C)O
[3]
Settings | excess molar enthalpy [kcal/mol]
x1 = 0.0817 | 0.0162 ± 0.00043
x1 = 0.1653 | 0.0276 ± 0.000669
x1 = 0.2454 | 0.0356 ± 0.000837
x1 = 0.3436 | 0.0429 ± 0.00098
x1 = 0.5462 | 0.0466 ± 0.00105
x1 = 0.6326 | 0.0451 ± 0.00103
x1 = 0.7173 | 0.0405 ± 0.000932
x1 = 0.8036 | 0.0298 ± 0.000717
x1 = 0.9097 | 0.0172 ± 0.000454

CCCO [propan-1-ol]
Settings | mass density [kg/m3] | refractive index
[1] | – | 1.3821 ± 0.0005
[2] | 795.53 ± 0.15 | –

OC1CCCCC1 [cyclohexanol] + CCO
[3]
Settings | excess molar enthalpy [kcal/mol]
x1 = 0.0883 | 0.0164 ± 0.00043
x1 = 0.1688 | 0.0283 ± 0.000669
x1 = 0.2501 | 0.0351 ± 0.000813
x1 = 0.337 | 0.0397 ± 0.000908
x1 = 0.456 | 0.0422 ± 0.000956
x1 = 0.5436 | 0.0424 ± 0.00098
x1 = 0.6255 | 0.0391 ± 0.000908
x1 = 0.7119 | 0.0348 ± 0.000813
x1 = 0.8026 | 0.0279 ± 0.000669
x1 = 0.9062 | 0.016 ± 0.00043

CO [methanol]
Settings | mass density [kg/m3] | refractive index
[1] | – | 1.3255 ± 0.0005
[2] | 781.87 ± 0.15 | –

OC1CCCCC1 [cyclohexanol] + CCCO
[3]
Settings | excess molar enthalpy [kcal/mol]
x1 = 0.0808 | 0.00583 ± 0.000239
x1 = 0.1568 | 0.0106 ± 0.000335
x1 = 0.2326 | 0.0151 ± 0.000406
x1 = 0.3085 | 0.0175 ± 0.000454
x1 = 0.3888 | 0.0201 ± 0.000502
x1 = 0.4614 | 0.0226 ± 0.00055
x1 = 0.547 | 0.0236 ± 0.000574
x1 = 0.6359 | 0.023 ± 0.000574
x1 = 0.7223 | 0.0205 ± 0.000526
x1 = 0.8063 | 0.0166 ± 0.00043
x1 = 0.901 | 0.00978 ± 0.000311

OC1CCCCC1 [cyclohexanol]
Settings | mass density [kg/m3] | refractive index
[1] | – | 1.4632 ± 0.0005
[2] | 941.36 ± 0.23 | –

OC1CCCCC1 [cyclohexanol] + CCCCO
[3]
Settings | excess molar enthalpy [kcal/mol]
x1 = 0.0976 | 0.00894 ± 0.000287
x1 = 0.1867 | 0.0143 ± 0.000382
x1 = 0.3025 | 0.0214 ± 0.000526
x1 = 0.3622 | 0.0241 ± 0.000598
x1 = 0.4484 | 0.0271 ± 0.000645
x1 = 0.5609 | 0.0279 ± 0.000669
x1 = 0.6402 | 0.0279 ± 0.000669
x1 = 0.7119 | 0.0261 ± 0.000621
x1 = 0.7842 | 0.022 ± 0.00055
x1 = 0.785 | 0.0223 ± 0.00055
x1 = 0.8549 | 0.0168 ± 0.000454
x1 = 0.8747 | 0.0141 ± 0.000382
x1 = 0.9059 | 0.011 ± 0.000335

CC(C)O [propan-2-ol]
Settings | mass density [kg/m3] | refractive index
[1] | – | 1.3741 ± 0.0005
[2] | 776.71 ± 0.17 | –

OC1CCCCC1 [cyclohexanol] + CCC(C)O
[3]
Settings | excess molar enthalpy [kcal/mol]
x1 = 0.0831 | 0.0112 ± 0.000335
x1 = 0.0874 | 0.0117 ± 0.000335
x1 = 0.1613 | 0.019 ± 0.000478
x1 = 0.1704 | 0.0201 ± 0.000502
x1 = 0.2787 | 0.0284 ± 0.000669
x1 = 0.3304 | 0.0304 ± 0.000717
x1 = 0.4131 | 0.0334 ± 0.000789
x1 = 0.5657 | 0.0359 ± 0.000837
x1 = 0.6512 | 0.0363 ± 0.000837
x1 = 0.7441 | 0.0325 ± 0.000765
x1 = 0.7557 | 0.0319 ± 0.000741
x1 = 0.8271 | 0.0247 ± 0.000598
x1 = 0.8352 | 0.0238 ± 0.000574
x1 = 0.9129 | 0.0128 ± 0.000359
x1 = 0.9201 | 0.0127 ± 0.000359

OC1CCCCC1 [cyclohexanol] + CO
[3]
Settings | excess molar enthalpy [kcal/mol]
x1 = 0.0742 | 0.0249 ± 0.000598
x1 = 0.1422 | 0.0368 ± 0.00086
x1 = 0.2234 | 0.0468 ± 0.00105
x1 = 0.2948 | 0.051 ± 0.00115
x1 = 0.4871 | 0.0514 ± 0.00115
x1 = 0.5587 | 0.0463 ± 0.00105
x1 = 0.6333 | 0.0406 ± 0.000932
x1 = 0.7266 | 0.0318 ± 0.000741
x1 = 0.8274 | 0.0196 ± 0.000502
x1 = 0.9162 | 0.0101 ± 0.000311

CCC(C)O (configuration not stated) [butan-2-ol]
Settings | mass density [kg/m3] | refractive index
[1] | – | 1.394 ± 0.0005
[2] | 798.58 ± 0.24 | –

— the NIST ThermoML archive (doi:10.1016/j.jct.2012.02.037)
